The values below come from article PMC5218480 (PLoS ONE, 2017).

Each structure is given as a SMILES string.

This test deals with MV-4-11 cells. As to the kind of experiment: Gene expression microarray analysis (Affymetrix PrimeView) and GSEA. It is filed as cell-based, human. The arrangement: RFU PODN (11730768_x_at) / Fold change /veh PODN (11730768_x_at) / RFU LINC00158 (11744669_a_at) / Fold change /veh LINC00158 (11744669_a_at) / RFU DUSP10 (11751237_a_at) / Fold change /veh DUSP10 (11751237_a_at) / RFU ID3 (11757404_x_at) / Fold change /veh ID3 (11757404_x_at) / RFU PLEKHG5 (11737974_s_at) / Fold change /veh PLEKHG5 (11737974_s_at) / RFU LRRC4B (11730491_at) / Fold change /veh LRRC4B (11730491_at) / RFU GIMAP4 (11747438_a_at) / Fold change /veh GIMAP4 (11747438_a_at) / RFU KRT8 (11758183_x_at) / Fold change /veh KRT8 (11758183_x_at) / RFU CNN1 (11734310_a_at) / Fold change /veh CNN1 (11734310_a_at) / RFU VPS37D (11726825_at) / Fold change /veh VPS37D (11726825_at) / RFU C10orf10 (11716522_x_at) / Fold change /veh C10orf10 (11716522_x_at) / RFU KIR2DL2 /// KIR2DL4 /// KIR2DL5A /// KIR2DL5B /// KIR2DS1 /// KIR2DS2 /// KIR2DS3 /// KIR2DS4 /// KIR3DL3 /// KIR3DL3 /// KIR3DS1 (11738374_at) / Fold change /veh KIR2DL2 /// KIR2DL4 /// KIR2DL5A /// KIR2DL5B /// KIR2DS1 /// KIR2DS2 /// KIR2DS3 /// KIR2DS4 /// KIR3DL3 /// KIR3DL3 /// KIR3DS1 (11738374_at) / RFU C1QL1 (11718748_at) / Fold change /veh C1QL1 (11718748_at) / RFU TMPRSS4 (11747572_a_at) / Fold change /veh TMPRSS4 (11747572_a_at) / RFU HAMP (11756126_x_at) / Fold change /veh HAMP (11756126_x_at) / RFU RNFT2 (11725882_a_at) / Fold change /veh RNFT2 (11725882_a_at) / RFU NR4A2 (11747474_a_at) / Fold change /veh NR4A2 (11747474_a_at) / RFU ABCC12 (11746883_a_at) / Fold change /veh ABCC12 (11746883_a_at) / RFU TMEM136 (11760407_x_at) / Fold change /veh TMEM136 (11760407_x_at) / RFU CLDN22 /// WWC2 (11732394_at) / Fold change /veh CLDN22 /// WWC2 (11732394_at) / RFU HLA-DPB1 (11760878_x_at) / Fold change /veh HLA-DPB1 (11760878_x_at) / RFU SPINT1 (11716480_a_at) / Fold change /veh SPINT1 (11716480_a_at) / RFU GAP43 (11754022_s_at) / Fold change /veh GAP43 (11754022_s_at) / RFU A4GNT (11735810_at) / Fold change /veh A4GNT (11735810_at) / RFU PRB3 (11715151_x_at) / Fold change /veh PRB3 (11715151_x_at) / RFU TUBB4B (11761932_at) / Fold change /veh TUBB4B (11761932_at) / RFU CAPN14 (11732068_a_at) / Fold change /veh CAPN14 (11732068_a_at) / RFU TMCC2 (11721928_a_at) / Fold change /veh TMCC2 (11721928_a_at) / RFU IRGQ (11745062_a_at) / Fold change /veh IRGQ (11745062_a_at) / RFU FAM174B (11720279_a_at) / Fold change /veh FAM174B (11720279_a_at) / RFU TMPRSS4 (11748680_a_at) / Fold change /veh TMPRSS4 (11748680_a_at) / RFU FAM212B (11763350_a_at) / Fold change /veh FAM212B (11763350_a_at) / RFU PLEKHG5 (11743358_a_at) / Fold change /veh PLEKHG5 (11743358_a_at) / RFU ZSCAN30 (11745921_a_at) / Fold change /veh ZSCAN30 (11745921_a_at) / RFU CMKLR1 (11741424_a_at) / Fold change /veh CMKLR1 (11741424_a_at) / RFU LOC101060620 /// MAPK8IP1 (11723275_at) / Fold change /veh LOC101060620 /// MAPK8IP1 (11723275_at) / RFU SPTSSB (11747773_x_at) / Fold change /veh SPTSSB (11747773_x_at) / RFU PRSS12 (11739890_at) / Fold change /veh PRSS12 (11739890_at) / RFU BIN1 (11741810_x_at) / Fold change /veh BIN1 (11741810_x_at) / RFU WNT11 (11732464_a_at) / Fold change /veh WNT11 (11732464_a_at) / RFU C10orf10 (11716521_a_at) / Fold change /veh C10orf10 (11716521_a_at) / RFU C5orf56 (11738089_at) / Fold change /veh C5orf56 (11738089_at) / RFU CYB561 (11721691_x_at) / Fold change /veh CYB561 (11721691_x_at) / RFU ANKRD19P (11752326_a_at) / Fold change /veh ANKRD19P (11752326_a_at) / RFU OR2T12 /// OR2T33 /// OR2T8 (11738714_s_at) / Fold change /veh OR2T12 /// OR2T33 /// OR2T8 (11738714_s_at) / RFU VCAN (11748164_a_at) / Fold change /veh VCAN (11748164_a_at) / RFU JSRP1 (11732532_at) / Fold change /veh JSRP1 (11732532_at) / RFU KRTAP10-11 (11738290_x_at) / Fold change /veh KRTAP10-11 (11738290_x_at) / RFU MYO3A (11730013_a_at) / Fold change /veh MYO3A (11730013_a_at) / RFU EBF3 (11725865_a_at) / Fold change /veh EBF3 (11725865_a_at) / RFU CAMK2N1 (11719241_x_at) / Fold change /veh CAMK2N1 (11719241_x_at) / RFU C5orf56 (11738088_a_at) / Fold change /veh C5orf56 (11738088_a_at) / RFU OLFML3 (11715873_a_at) / Fold change /veh OLFML3 (11715873_a_at) / RFU LOC100653217 /// NTM (11731650_a_at) / Fold change /veh LOC100653217 /// NTM (11731650_a_at) / RFU MAPK11 (11762145_a_at) / Fold change /veh MAPK11 (11762145_a_at) / RFU FIZ1 (11724087_x_at) / Fold change /veh FIZ1 (11724087_x_at) / RFU OASL (11726364_x_at) / Fold change /veh OASL (11726364_x_at) / RFU SOX15 (11748057_x_at) / Fold change /veh SOX15 (11748057_x_at) / RFU CD79A (11719716_a_at) / Fold change /veh CD79A (11719716_a_at) / RFU HIST1H1D (11736915_at) / Fold change /veh HIST1H1D (11736915_at) / RFU CASKIN2 (11723855_a_at) / Fold change /veh CASKIN2 (11723855_a_at) / RFU LOC730098 (11760151_x_at) / Fold change /veh LOC730098 (11760151_x_at) / RFU OR4N2 (11742367_at) / Fold change /veh OR4N2 (11742367_at) / RFU PRRT2 (11749266_a_at) / Fold change /veh PRRT2 (11749266_a_at) / RFU SNX32 (11753110_a_at) / Fold change /veh SNX32 (11753110_a_at) / RFU CDHR5 (11726645_a_at) / Fold change /veh CDHR5 (11726645_a_at) / RFU RCAN1 (11760418_a_at) / Fold change /veh RCAN1 (11760418_a_at) / RFU FAM167A (11723789_a_at) / Fold change /veh FAM167A (11723789_a_at) / RFU FAM26E (11764081_at) / Fold change /veh FAM26E (11764081_at) / RFU ISYNA1 (11749810_s_at) / Fold change /veh ISYNA1 (11749810_s_at) / RFU ACY1 (11761880_at) / Fold change /veh ACY1 (11761880_at) / RFU 11764098_at / Fold change /veh 11764098_at / RFU SAMD14 (11745864_x_at) / Fold change /veh SAMD14 (11745864_x_at) / RFU NPB (11741838_a_at) / Fold change /veh NPB (11741838_a_at) / RFU TMPRSS6 (11731388_a_at) / Fold change /veh TMPRSS6 (11731388_a_at) / RFU KRTAP10-2 (11738614_at) / Fold change /veh KRTAP10-2 (11738614_at) / RFU ARHGAP8 /// PRR5-ARHGAP8 (11727945_x_at) / Fold change /veh ARHGAP8 /// PRR5-ARHGAP8 (11727945_x_at) / RFU KRTAP5-7 /// NADSYN1 (11734609_at) / Fold change /veh KRTAP5-7 /// NADSYN1 (11734609_at) / RFU RASL12 (11751679_a_at) / Fold change /veh RASL12 (11751679_a_at) / RFU CDKN2B (11736163_a_at) / Fold change /veh CDKN2B (11736163_a_at) / RFU PRF1 (11729649_at) / Fold change /veh PRF1 (11729649_at) / RFU, ZNF638 /// ZNF638-IT1 / Fold change vs veh, ZNF638 /// ZNF638-IT1 / RFU, PANK3 / Fold change vs veh, PANK3 / RFU, SH3YL1 / Fold change vs veh, SH3YL1 / RFU, ZEB2 / Fold change vs veh, ZEB2 / RFU, NRIP1 / Fold change vs veh, NRIP1 / RFU, PTTG1IP / Fold change vs veh, PTTG1IP / RFU, CAPN2 / Fold change vs veh, CAPN2 / RFU, MED14 / Fold change vs veh, MED14 / RFU, SNORA58 / Fold change vs veh, SNORA58 / RFU, C1orf63 / Fold change vs veh, C1orf63 / RFU, LRRFIP1 / Fold change vs veh, LRRFIP1 / RFU, NDUFAF7 / Fold change vs veh, NDUFAF7 / RFU, SLC12A2 / Fold change vs veh, SLC12A2 / RFU, IBTK / Fold change vs veh, IBTK / RFU, ESF1 / Fold change vs veh, ESF1 / Fold change vs veh, TMEM50B / RFU, TAOK1 / Fold change vs veh, TAOK1 / RFU, ACBD3 / Fold change vs veh, ACBD3 / RFU, TMA16 / Fold change vs veh, TMA16 / RFU, RWDD3 / Fold change vs veh, RWDD3 / RFU, BCAT1 / Fold change vs veh, BCAT1 / RFU, EDEM3 / Fold change vs veh, EDEM3 / RFU, TMEM33 / Fold change vs veh, TMEM33 / RFU, WDR75 / Fold change vs veh, WDR75 / RFU, AHCTF1 / Fold change vs veh, AHCTF1 / RFU, TFRC / Fold change vs veh, TFRC / RFU, ZDHHC17 / Fold change vs veh, ZDHHC17 / RFU, NOM1 / Fold change vs veh, NOM1 / RFU, ARL8B / Fold change vs veh, ARL8B / RFU, ZBTB11 / Fold change vs veh, ZBTB11 / RFU, TAMM41 / Fold change vs veh, TAMM41 / RFU, KIAA1704 /// LOC100996395 / Fold change vs veh, KIAA1704 /// LOC100996395 / RFU, ING1 / Fold change vs veh, ING1 / RFU, TRMT61B / Fold change vs veh, TRMT61B / RFU, FUBP3 / Fold change vs veh, FUBP3 / RFU, TP53 / Fold change vs veh, TP53 / RFU, TNKS2 / Fold change vs veh, TNKS2 / RFU, ZFP14 / Fold change vs veh, ZFP14 / RFU, ACTR2 / Fold change vs veh, ACTR2 / RFU, PPP3R1 / Fold change vs veh, PPP3R1 / RFU, PIK3R1 / Fold change vs veh, PIK3R1 / RFU, HNRNPA1 / Fold change vs veh, HNRNPA1 / RFU, RNF170 / Fold change vs veh, RNF170 / RFU, ZNF28 / Fold change vs veh, ZNF28 / RFU, RNGTT / Fold change vs veh, RNGTT / RFU, OGT / Fold change vs veh, OGT / RFU, BRD1 / Fold change vs veh, BRD1 / RFU, MARS / Fold change vs veh, MARS / RFU, ZNF655 / Fold change vs veh, ZNF655 / RFU, FAHD1 / Fold change vs veh, FAHD1 / RFU, BDP1 / Fold change vs veh, BDP1 / RFU, LRRCC1 / Fold change vs veh, LRRCC1 / RFU, ARID1A / Fold change vs veh, ARID1A / RFU, ZNF146 / Fold change vs veh, ZNF146 / RFU, ZNF330 / Fold change vs veh, ZNF330 / RFU, GPN3 / Fold change vs veh, GPN3 / RFU, C9orf123 / Fold change vs veh, C9orf123 / RFU, N4BP2L2 / Fold change vs veh, N4BP2L2 / RFU, ARFIP1 / Fold change vs veh, ARFIP1 / RFU, FAM179B / Fold change vs veh, FAM179B / RFU, BCL10 / Fold change vs veh, BCL10 / RFU, UHRF1BP1L / Fold change vs veh, UHRF1BP1L / RFU, BET1 / Fold change vs veh, BET1 / RFU, CNOT2 / Fold change vs veh, CNOT2 / RFU, ZNF268 / Fold change vs veh, ZNF268 / Fold change vs veh, ZNF507 / RFU, DGCR2 / Fold change vs veh, DGCR2 / RFU, WDSUB1 / Fold change vs veh, WDSUB1 / Fold change vs veh, HSP90B1 /// MIR3652 / RFU, ADSS / Fold change vs veh, ADSS / RFU, GK / Fold change vs veh, GK / RFU, ZNF148 / Fold change vs veh, ZNF148 / RFU, TAF9 / Fold change vs veh, TAF9 / RFU, SLC1A5 / Fold change vs veh, SLC1A5 / RFU, SLMO2 / Fold change vs veh, SLMO2 / RFU, ABCC4 / Fold change vs veh, ABCC4 / RFU, LOC101060439 /// RAP1B / Fold change vs veh, LOC101060439 /// RAP1B / RFU, RFX7 / Fold change vs veh, RFX7 / RFU, GTPBP10 / Fold change vs veh, GTPBP10 / RFU, CNEP1R1 / Fold change vs veh, CNEP1R1 / RFU, BIVM-ERCC5 /// ERCC5 / Fold change vs veh, BIVM-ERCC5 /// ERCC5 / RFU, ILF3 / Fold change vs veh, ILF3 / RFU 11762660_at / Fold change /veh 11762660_at / RFU VCAN (11757783_s_at) / Fold change /veh VCAN (11757783_s_at) / RFU DDX43 (11728927_at) / Fold change /veh DDX43 (11728927_at) / RFU KRT8 (11758188_x_at) / Fold change /veh KRT8 (11758188_x_at) / RFU NKD1 (11759106_at) / Fold change /veh NKD1 (11759106_at) / RFU SRD5A1 (11742802_a_at) / Fold change /veh SRD5A1 (11742802_a_at) / RFU TPSAB1 /// TPSB2 (11721975_s_at) / Fold change /veh TPSAB1 /// TPSB2 (11721975_s_at) / RFU GSTM3 (11746129_a_at) / Fold change /veh GSTM3 (11746129_a_at) / RFU IL23R (11737362_x_at) / Fold change /veh IL23R (11737362_x_at) / RFU TMEM51 (11727254_a_at) / Fold change /veh TMEM51 (11727254_a_at) / RFU PIWIL2 (11732686_x_at) / Fold change /veh PIWIL2 (11732686_x_at) / RFU ORM1 (11744905_x_at) / Fold change /veh ORM1 (11744905_x_at) / RFU CCDC152 (11743942_at) / Fold change /veh CCDC152 (11743942_at) / RFU ECM1 (11717891_a_at) / Fold change /veh ECM1 (11717891_a_at) / RFU IL23R (11748794_a_at) / Fold change /veh IL23R (11748794_a_at) / RFU TNFAIP8L3 (11732012_x_at) / Fold change /veh TNFAIP8L3 (11732012_x_at) / RFU MBOAT4 (11741988_at) / Fold change /veh MBOAT4 (11741988_at) / RFU 11764193_at / Fold change /veh 11764193_at / RFU TMEM53 (11763286_at) / Fold change /veh TMEM53 (11763286_at) / RFU MAGEB2 (11727129_at) / Fold change /veh MAGEB2 (11727129_at) / RFU TMEM200A (11744735_a_at) / Fold change /veh TMEM200A (11744735_a_at) / RFU CCDC152 (11751479_a_at) / Fold change /veh CCDC152 (11751479_a_at) / RFU FAM211A (11726209_a_at) / Fold change /veh FAM211A (11726209_a_at) / RFU RGS16 (11746705_a_at) / Fold change /veh RGS16 (11746705_a_at) / RFU VCAN (11755009_s_at) / Fold change /veh VCAN (11755009_s_at) / RFU RHOB (11743442_s_at) / Fold change /veh RHOB (11743442_s_at) / RFU RGS16 (11720943_a_at) / Fold change /veh RGS16 (11720943_a_at) / RFU RGS16 (11720944_at) / Fold change /veh RGS16 (11720944_at) / RFU, VPS4B / Fold change vs veh, VPS4B / RFU, CREB1 / Fold change vs veh, CREB1 / RFU, DNAJC13 / Fold change vs veh, DNAJC13 / RFU, GNAQ / Fold change vs veh, GNAQ / RFU, CDK5R1 / Fold change vs veh, CDK5R1 / RFU, ZRANB3 / Fold change vs veh, ZRANB3 / RFU, CUL4A / Fold change vs veh, CUL4A / RFU, CCNY / Fold change vs veh, CCNY / RFU, UFL1 / Fold change vs veh, UFL1 / RFU, COG3 / Fold change vs veh, COG3 / RFU, DIAPH2 / Fold change vs veh, DIAPH2 / RFU, SKA2 / Fold change vs veh, SKA2 / RFU, AFF3 / Fold change vs veh, AFF3 / RFU, LMF1 / Fold change vs veh, LMF1 / RFU, IPO11 / Fold change vs veh, IPO11 / RFU, DFFB / Fold change vs veh, DFFB / RFU, FOXP1 / Fold change vs veh, FOXP1 / RFU, CARD8 / Fold change vs veh, CARD8 / RFU, STRN3 / Fold change vs veh, STRN3 / RFU, ADK / Fold change vs veh, ADK / RFU, RASSF2 / Fold change vs veh, RASSF2 / RFU, WIPF1 / Fold change vs veh, WIPF1 / RFU, LARP1B / Fold change vs veh, LARP1B / RFU, RASA1 / Fold change vs veh, RASA1 / RFU, RB1 / Fold change vs veh, RB1 / RFU, PPFIA1 / Fold change vs veh, PPFIA1 / RFU, MAT2A / Fold change vs veh, MAT2A / RFU, CCT5 / Fold change vs veh, CCT5 / RFU, WDR92 / Fold change vs veh, WDR92 / RFU, CUX1 / Fold change vs veh, CUX1 / RFU, TTC7A / Fold change vs veh, TTC7A / RFU, TMEM135 / Fold change vs veh, TMEM135 / RFU, DEPTOR / Fold change vs veh, DEPTOR / RFU, CPM / Fold change vs veh, CPM / RFU, DNAJB6 / Fold change vs veh, DNAJB6 / RFU, CACNA2D3 / Fold change vs veh, CACNA2D3 / RFU, DTX4 / Fold change vs veh, DTX4 / RFU, TFCP2 / Fold change vs veh, TFCP2 / RFU, GMCL1 /// GMCL1P1 / Fold change vs veh, GMCL1 /// GMCL1P1 / RFU, AEBP2 / Fold change vs veh, AEBP2 / RFU, SNHG1 /// SNORD22 /// SNORD25 /// SNORD26 /// SNORD27 /// SNORD28 /// SNORD29 /// SNORD31 / Fold change vs veh, SNHG1 /// SNORD22 /// SNORD25 /// SNORD26 /// SNORD27 /// SNORD28 /// SNORD29 /// SNORD31 / Fold change (Aza/veh), C12orf56 (ProbeSet 11735607_a_at) / Fold change (ACY-1035/veh), C12orf56 (ProbeSet 11735607_a_at) / Fold change (Aza/veh), FGFR1OP (ProbeSet 11751329_s_at) / Fold change (ACY-1035/veh), FGFR1OP (ProbeSet 11751329_s_at) / Fold change (Aza/veh), VPS36 (ProbeSet 11739960_a_at) / Fold change (ACY-1035/veh), VPS36 (ProbeSet 11739960_a_at) / RFU SYPL1 (11715823_x_at) / Fold change /veh SYPL1 (11715823_x_at) / RFU IGFBP7 (11715501_s_at) / Fold change /veh IGFBP7 (11715501_s_at) / RFU REEP3 (11722064_at) / Fold change /veh REEP3 (11722064_at) / RFU IGLL1 (11728026_x_at) / Fold change /veh IGLL1 (11728026_x_at): dose or concentration left out as unconfirmed. Conditions: MV-4-11 cells, 48 hours.

Take `Nc1ncn([C@@H]2O[C@H](CO)[C@@H](O)[C@H]2O)c(=O)n1` [azacitidine]: the “Fold change /veh C5orf56 (11738089_at)” value was 1.15.
